Tests used:
Type in all cases: cell-based, mouse
[1] = system: α7 integrin (LacZ reporter in α7βgal+/− myoblasts); test: Myoblast α7+/LacZ integrin FDG assay (Burkin assay in myoblasts, 96-well); conditions: α7+/LacZ myoblasts, 96-well
[2] = system: α7 integrin (LacZ reporter in α7+/LacZ myotubes); test: Myotube α7 integrin FDG assay (Burkin assay in myotubes, 96-well); conditions: myotubes
[3] = system: β-galactosidase in CMV-LacZ C2C12 myoblasts; test: CMV-LacZ secondary screen in C2C12 myoblasts (β-Gal stabilizing assay); conditions: CMV-LacZ C2C12 myoblasts
In short: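 β-gal stabilization was measured in C2C12 myoblasts or myotubes stably transfected with a CMV-driven LacZ construct, using the FDG β-gal assay. Compounds were tested in dose-response at 0.5, 1, 5, 10, 20 and 40 μM, with two replicates per point.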

[4] = system: β-galactosidase in CMV-LacZ C2C12 myotubes; test: CMV-LacZ secondary screen in C2C12 myotubes (β-Gal stabilizing assay); conditions: C2C12 CMV-LacZ myotubes, fold relative to DMSO
In short: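 A secondary screen identifies compounds that stabilize β-gal independently of the native promoter, using CMV-LacZ C2C12 cells. Curves span 0.5–40 μM at six levels, in duplicate.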

`CC(C)(C)NC(=O)NC(=O)CN1CCN(Cc2ccccc2)CC1` [MLS001006302-01] was tested, and the “Burkin Assay in Myoblasts, signal relative to DMSO” value ([1]; 0.5 uM) was 1.123, the “Burkin Assay in Myoblasts, signal relative to DMSO” value ([1]; 1 uM) was 0.9303 and the “Burkin Assay in Myoblasts, signal relative to DMSO” value ([1]; 5 uM) was 0.9535. For the same compound, the “Burkin Assay in Myoblasts, signal relative to DMSO” value ([1]; 10 uM) was 1.172, the “Burkin Assay in Myoblasts, signal relative to DMSO” value ([1]; 20 uM) was 0.973 and the “Burkin Assay in Myoblasts, signal relative to DMSO” value ([1]; 40 uM) was 0.9414. For the same compound, the “Burkin Assay in Myotubes, α7 integrin LacZ reporter signal relative to DMSO” value ([2]; 0.5 uM) was 0.9822, the “Burkin Assay in Myotubes, α7 integrin LacZ reporter signal relative to DMSO” value ([2]; 1 uM) was 0.9373 and the “Burkin Assay in Myotubes, α7 integrin LacZ reporter signal relative to DMSO” value ([2]; 5 uM) was 1.039. The “Burkin Assay in Myotubes, α7 integrin LacZ reporter signal relative to DMSO” value ([2]; 10 uM) was 1.212, the “Burkin Assay in Myotubes, α7 integrin LacZ reporter signal relative to DMSO” value ([2]; 20 uM) was 0.7835 and the “Burkin Assay in Myotubes, α7 integrin LacZ reporter signal relative to DMSO” value ([2]; 40 uM) was 1.078. For the same compound, the “CMV-LACZ in Myoblasts (β-galactosidase activity relative to DMSO)” value ([3]; 0.5 uM) was 0.9343, the “CMV-LACZ in Myoblasts (β-galactosidase activity relative to DMSO)” value ([3]; 1 uM) was 0.7663 and the “CMV-LACZ in Myoblasts (β-galactosidase activity relative to DMSO)” value ([3]; 5 uM) was 0.8911. For the same compound, the “CMV-LACZ in Myoblasts (β-galactosidase activity relative to DMSO)” value ([3]; 10 uM) was 1.0767, the “CMV-LACZ in Myoblasts (β-galactosidase activity relative to DMSO)” value ([3]; 20 uM) was 0.9502 and the “CMV-LACZ in Myoblasts (β-galactosidase activity relative to DMSO)” value ([3]; 40 uM) was 0.7646. For the same compound, the “CMV-LACZ in Myotubes, signal relative to DMSO” value ([4]; 0.5 uM) was 1.0229, the “CMV-LACZ in Myotubes, signal relative to DMSO” value ([4]; 1 uM) was 0.9143 and the “CMV-LACZ in Myotubes, signal relative to DMSO” value ([4]; 5 uM) was 0.9398. The “CMV-LACZ in Myotubes, signal relative to DMSO” value ([4]; 10 uM) was 1.0122, the “CMV-LACZ in Myotubes, signal relative to DMSO” value ([4]; 20 uM) was 0.9010 and the “CMV-LACZ in Myotubes, signal relative to DMSO” value ([4]; 40 uM) was 0.9720.
In the case of `CC(=O)Nc1ccc(NC(=O)c2cc(=O)c3cc(C)cc(C)c3o2)cc1` [MLS001200396-01], the “Burkin Assay in Myoblasts, signal relative to DMSO” value ([1]; 0.5 uM) is reported as 0.8827, the “Burkin Assay in Myoblasts, signal relative to DMSO” value ([1]; 1 uM) is reported as 0.9245 and the “Burkin Assay in Myoblasts, signal relative to DMSO” value ([1]; 5 uM) is reported as 0.5378. For the same compound, the “Burkin Assay in Myoblasts, signal relative to DMSO” value ([1]; 10 uM) was 1.1321, the “Burkin Assay in Myoblasts, signal relative to DMSO” value ([1]; 20 uM) was 0.4827 and the “Burkin Assay in Myoblasts, signal relative to DMSO” value ([1]; 40 uM) was 0.4794. The “Burkin Assay in Myotubes, α7 integrin LacZ reporter signal relative to DMSO” value ([2]; 0.5 uM) was 0.9301, the “Burkin Assay in Myotubes, α7 integrin LacZ reporter signal relative to DMSO” value ([2]; 1 uM) was 0.9487 and the “Burkin Assay in Myotubes, α7 integrin LacZ reporter signal relative to DMSO” value ([2]; 5 uM) was 0.9829. For the same compound, the “Burkin Assay in Myotubes, α7 integrin LacZ reporter signal relative to DMSO” value ([2]; 10 uM) was 1.264, the “Burkin Assay in Myotubes, α7 integrin LacZ reporter signal relative to DMSO” value ([2]; 20 uM) was 0.6408 and the “Burkin Assay in Myotubes, α7 integrin LacZ reporter signal relative to DMSO” value ([2]; 40 uM) was 0.7114. The “CMV-LACZ in Myoblasts (β-galactosidase activity relative to DMSO)” value ([3]; 0.5 uM) was 1.0489, the “CMV-LACZ in Myoblasts (β-galactosidase activity relative to DMSO)” value ([3]; 1 uM) was 0.9157 and the “CMV-LACZ in Myoblasts (β-galactosidase activity relative to DMSO)” value ([3]; 5 uM) was 1.0212. For the same compound, the “CMV-LACZ in Myoblasts (β-galactosidase activity relative to DMSO)” value ([3]; 10 uM) was 1.2107, the “CMV-LACZ in Myoblasts (β-galactosidase activity relative to DMSO)” value ([3]; 20 uM) was 0.7252 and the “CMV-LACZ in Myoblasts (β-galactosidase activity relative to DMSO)” value ([3]; 40 uM) was 0.9011. For the same compound, the “CMV-LACZ in Myotubes, signal relative to DMSO” value ([4]; 0.5 uM) was 0.9137, the “CMV-LACZ in Myotubes, signal relative to DMSO” value ([4]; 1 uM) was 0.8442 and the “CMV-LACZ in Myotubes, signal relative to DMSO” value ([4]; 5 uM) was 0.8987. The “CMV-LACZ in Myotubes, signal relative to DMSO” value ([4]; 10 uM) was 0.7738, the “CMV-LACZ in Myotubes, signal relative to DMSO” value ([4]; 20 uM) was 0.9644 and the “CMV-LACZ in Myotubes, signal relative to DMSO” value ([4]; 40 uM) was 0.9733.
